This is an account of results in patent publication US20250304633A1, “PEPTIDE HAVING ANTIMICROBIAL ACTIVITY” (CABOSSE NATURALS NV, priority 2022, published 2025).

What all share (assay type): cell-based
One assay has as its system Botrytis cinerea. As for the experimental part:
(§1) The antimicrobial potential of the peptide described herein was compared with the activity of, two other AMPs, TcAMP1 and TcAMP2 as discussed in WO1998027805, and antibiotics or fungicides. Comparative MIC assays were carried out against several bacterial and fungal species (Table 1).
(§2) Peptides according to SEQ ID N° 1, SEQ ID N° 4, and SEQ ID N° 5 were serially diluted in order to create a concentration sequence ranging from 0.39 μg/ml to […].
(§3) Pantoea, Staphylococcus, and Listeria were cultured in Trypticase Soy Broth (TSY) medium consisting of 1.7% casein peptone, 0.3% soy peptone, 0.25% glucose, 0.5% NaCl, 0.25% K2HPO4 and optionally 1.5% agar. Candida cells were cultured in Yeast Extract Peptone Dextrose (YPD) broth medium consisting of 1% yeast extract, 2% peptone, 2% glucose, and optionally 2% agar. Ceratocystis, Botrytis, Leptosphaeria, Mycosphaerella, Sclerotinia, and Verticillium were cultured in Potato Dextrose Agar (PDA) medium consisting of 2.4% Difco pre-mix broth and optionally 1.5% agar.
(§4) For the MIC assay bacteria and fungi were grown on agar plates with their respective media. Pre-cultures were prepared by inoculating either single bacterial colonies or small pieces of fungi in 5 ml of the respective liquid medium. The optical density (OD) at 600 nm was measured after one to five days and adjusted to an OD600 of 1. This cell suspension was used to prepare 1:500 dilutions, corresponding to approximately 2×10^6 microbial cells per ml.
(§5) To evaluate MICs, 96-well plates were prepared with the test antimicrobial peptides. Each well contained 100 μl microbial cell culture, 90 μl culture medium, and 10 μl peptide or control at the corresponding dilution. The plates were incubated overnight (ON) at the optimal growth temperature for each tested organism. Results were visually evaluated and MICs determined based on growth or no-growth.
(§6) MIC assays were conducted in at least two independent replicates and with different peptide starting concentrations.

The test system of the next assay is Candida albicans. The procedure: as §1, §2, §3, §4, §5, §6
Another assay relates to Ceratosystis paradoxa. As for the experimental part: as §1, §2, §3, §4, §5, §6
The subject of another assay is Leptosphaeria maculans. The procedure: as §1, §2, §3, §4, §5, §6
For another assay, the system named is Listeria monocytogenes. The procedure: as §1, §2, §3, §4, §5, §6
The next assay relates to Mycosphaerella pinodes. As for the experimental part: as §1, §2, §3, §4, §5, §6
Another assay deals with Pantoea agglomerans. As for the experimental part: as §1, §2, §3, §4, §5, §6
For the next assay, the system named is Sclerotinia sclerotiorum. As for the experimental part:
as §1, §2, §3, §4, §5, §6

Assay [1] has as its system Staphylococcus aureus MRSA. The procedure: as §1, §2, §3, §4, §5, §6
The subject of a further assay is Verticillium dahliae. As for the experimental part:
as §1, §2, §3, §4, §5, §6

The next assay deals with tested fungal species. Description: MIC assays, all tested fungal species. The settings on record: all the tested fungal species. As for the experimental part: as §1, §2, §3
For the MIC assay bacteria and fungi were grown on agar plates with their respective media. […] The optical density (OD) at 600 nm was measured after one to five days and adjusted to an OD600 of 1. […]
To evaluate MICs, 96-well plates were prepared with the test antimicrobial peptides. […] Results were visually evaluated and MICs determined based on growth or no-growth. […]

Ends that are not written are not given here.

As for “YGRKQYERDPRQQYEQCQRRCESEATEEREQEQCEQRCEREYKEQQRQQEEELQRQ (cysteines drawn unpaired) [SEQ ID No 1]”, the Minimal inhibitory concentration in the assay on Botrytis cinerea came out at 3.5 µg/mL; in the assay with Candida albicans it was 3.85 µg/mL; in the assay on Ceratosystis paradoxa it was 1.9 µg/mL; in the assay on Leptosphaeria maculans it was 12.5 µg/mL; in the assay with Listeria monocytogenes it was 1.6 µg/mL; in the assay with Mycosphaerella pinodes, 2.8 µg/mL. Further, the Minimal inhibitory concentration with Pantoea agglomerans worked out at 2.5 µg/mL; with Sclerotinia sclerotiorum, 10.4 µg/mL; in [1], 3.2 µg/mL; in the assay with Verticillium dahliae, 3.85 µg/mL. In addition, the “inhibitory effects in MIC assays” value in the assay with tested fungal species is recorded as “inhibitory effects against all the tested fungal species”.
